pIC50, pKi: −log10 of the molar value. In brackets after ≈: the same amount, converted by molar mass.

One assay has as its system HuT78. The assay is described as follows: Antiproliferative activity against human HUT78 cells by alamar blue assay. Format: functional. (In general: Resazurin is reduced to fluorescent resorufin, in cell work by metabolically active cells.)
Another assay relates to Jurkat. The assay is described as follows: Antiproliferative activity against human Jurkat cells by alamar blue assay. Format: functional.
The next assay concerns MOLT-4. The assay is described as follows: Antiproliferative activity against human MOLT4 cells by alamar blue assay. It is filed as functional.
The test system of another assay is CCRF-HSB-2. In words: Antiproliferative activity against human HSB2 cells by alamar blue assay. It is filed as functional.
The target of assay [1] is T1, Sigma intracellular receptor 2 (Rattus norvegicus, UniProt Q5U3Y7).
T1 sequence (Q5U3Y7 whole entry): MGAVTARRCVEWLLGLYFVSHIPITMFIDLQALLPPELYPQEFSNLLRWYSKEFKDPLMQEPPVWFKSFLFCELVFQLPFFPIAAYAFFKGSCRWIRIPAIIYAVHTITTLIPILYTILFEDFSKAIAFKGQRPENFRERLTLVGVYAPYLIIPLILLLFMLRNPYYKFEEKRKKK
In words: Displacement of [3H]-di-o-tolylguanidine from sigma-2 receptor in rat liver membranes after 180 mins by scintillation counting method. Format: cell membranes, Membrane. In general terms: Loss of bound radioactivity is the signal in a displacement assay; it reports binding, not function.

Assay [2] concerns the target Sigma non-opioid intracellular receptor 1 (Cavia porcellus, UniProt Q60492). In words: Displacement of [3H]-(+)-pentazocine from sigma-1 receptor in guinea pig brain membranes after 180 mins by scintillation counting method. Format: cell membranes, Membrane.
In assay [3] the test system is MCF7. In words: Antiproliferative activity against human MCF7 cells after 72 hrs by SRB assay. Format: functional, cell-based. As to conditions: MCF7, 72 h. (In general: Sulforhodamine B stains cellular protein and so reports cell mass.)
The next assay deals with P388. In words: Antiproliferative activity against mouse P388 cells. It is filed as functional, cell-based.
The target of assay [4] is Serine/threonine-protein kinase pim-1 (Homo sapiens, UniProt P11309). In words: Inhibition of PIM1 (unknown origin).
The next assay relates to HT-1080. The assay is described as follows: Antiproliferative activity against human HT1080 cells. It is filed as functional, cell-based.
The test system of a further assay is MDA-MB-435. In words: Antiproliferative activity against human MDA435 cells. It is filed as functional, cell-based.
The target of a further assay is Histone deacetylase 1 (Homo sapiens, UniProt Q13547). In words: Inhibition of HDAC1 (unknown origin).
For a further assay, the system named is K562. In words: Antiproliferative activity against human K562 cells. Format: functional, cell-based.
For the next assay, the system named is HepG2. In words: Antiproliferative activity against human HepG2 cells. It is filed as functional, cell-based.
Another assay relates to LoVo. In words: Antiproliferative activity against human LoVo cells. It is filed as functional, cell-based.
Assay [5] deals with MCF7. The assay is described as follows: Antiproliferative activity against human MCF7 cells. It is filed as functional, cell-based.
The subject of a further assay is HCT-116. In words: Antiproliferative activity against human HCT116 cells. Format: functional, cell-based.

Sequence of Serine/threonine-protein kinase pim-1 (P11309 whole entry): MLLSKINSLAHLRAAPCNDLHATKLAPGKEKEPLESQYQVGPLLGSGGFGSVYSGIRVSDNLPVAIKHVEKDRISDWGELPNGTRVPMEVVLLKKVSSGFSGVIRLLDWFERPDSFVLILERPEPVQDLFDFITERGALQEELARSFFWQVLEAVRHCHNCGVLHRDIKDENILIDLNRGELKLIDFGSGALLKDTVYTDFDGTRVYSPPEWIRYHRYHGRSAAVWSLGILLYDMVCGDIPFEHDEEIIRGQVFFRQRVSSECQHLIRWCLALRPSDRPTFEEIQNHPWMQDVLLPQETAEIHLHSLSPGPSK
Sequence of Histone deacetylase 1 (Q13547 whole entry): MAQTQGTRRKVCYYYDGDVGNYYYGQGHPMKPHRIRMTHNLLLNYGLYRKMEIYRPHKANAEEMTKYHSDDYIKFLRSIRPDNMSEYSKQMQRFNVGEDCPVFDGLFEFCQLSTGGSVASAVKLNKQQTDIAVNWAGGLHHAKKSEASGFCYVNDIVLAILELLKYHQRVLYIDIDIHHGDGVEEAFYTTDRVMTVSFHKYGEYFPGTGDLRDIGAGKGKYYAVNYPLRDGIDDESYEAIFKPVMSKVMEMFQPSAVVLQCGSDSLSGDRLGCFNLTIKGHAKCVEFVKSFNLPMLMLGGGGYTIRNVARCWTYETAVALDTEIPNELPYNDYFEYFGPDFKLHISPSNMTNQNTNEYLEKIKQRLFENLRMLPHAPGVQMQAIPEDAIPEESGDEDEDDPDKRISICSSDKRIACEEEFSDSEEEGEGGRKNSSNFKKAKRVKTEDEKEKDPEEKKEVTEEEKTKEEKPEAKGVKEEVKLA
Sequence of Sigma non-opioid intracellular receptor 1 (Q60492 whole entry): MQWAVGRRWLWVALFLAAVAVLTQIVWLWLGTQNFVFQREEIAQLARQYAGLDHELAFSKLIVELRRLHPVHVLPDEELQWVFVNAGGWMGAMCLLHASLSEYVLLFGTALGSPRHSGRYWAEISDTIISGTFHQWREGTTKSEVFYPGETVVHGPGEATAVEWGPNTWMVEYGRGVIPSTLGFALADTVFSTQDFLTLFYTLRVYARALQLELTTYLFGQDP

As for `COc1ccc(Cn2ccc3ccc(C(=O)NO)cc32)cc1`, the GI50 in the assay on HuT78, in the assay with Jurkat, in the assay on MOLT-4 and in the assay with CCRF-HSB-2 was 2400 to 4000 nM each time.
For the compound `Clc1ccc(CN2CCN(Cc3c[nH]c4ccccc34)CC2)cc1Cl`, the pKi in [1] and in [2] was at least 6.89 throughout. The pIC50 (usually −log10 of the IC50, conventionally taken in molar units) in the assay with MCF7 [3] was 5.53.
On to `N[C@@H]1CSCON2CCc3c([nH]c4cc(Br)ccc34)[C@H]12`, for which the half-inhibitory concentration (IC50) (as a rule, the point on the concentration scale where inhibition reaches its midpoint) with P388 came out at 0.01 µg/mL (≈ 0.0282 µM).
As to `Cc1cn(CN2CCN(CCc3ccccc3)CC2)c2ccccc12`, the pKi (in general, the Ki on a negative log10 scale, so that one unit is a factor of ten) in assay [1] was 7.25.
Still for that read-out and setting: as for `Fc1ccccc1N1CCN(CCCn2ccc3ccccc32)CC1`, the figure is 8.00.
Take `CCN(CC)CCCOc1cc(-c2ccc3[nH]cc(-c4ccnc(N)n4)c3c2)nc(N)n1`: the pIC50 in assay [4] is 7.17.
On the same count and under the same terms, as for `CN(C)CCCOc1cc(-c2ccc3[nH]cc(-c4ccnc(N)n4)c3c2)nc(N)n1`, the figure is 7.24.
With `O=C(CCCCCCNC(=O)c1cc2ccccc2[nH]1)NO`, the pIC50 in the assay on HT-1080 is 6.85; in the assay on MDA-MB-435, 6.82.
Turning to `COc1ccc2[nH]cc(Cn3cc(COc4ccc(/C=C/C(=O)NO)cc4OC)nn3)c2c1`, the pIC50 was 7.11 against Histone deacetylase 1; 5.21 to 5.45 in the assay with K562; 5.21 to 5.45 in the assay with HepG2; 5.21 to 5.45 in the assay with LoVo; 5.21 to 5.45 with MCF7 [5]; 5.21 to 5.45 in the assay with HCT-116.

Values taken from ChEMBL document CHEMBL4196067, “Indole in the target-based design of anticancer agents: A versatile scaffold with diverse mechanisms” (Eur J Med Chem, 2018).
